Experiment [1] concerns the target T1, 5-hydroxytryptamine receptor 1A (Homo sapiens) (UniProt P08908).
T1 sequence (whole entry): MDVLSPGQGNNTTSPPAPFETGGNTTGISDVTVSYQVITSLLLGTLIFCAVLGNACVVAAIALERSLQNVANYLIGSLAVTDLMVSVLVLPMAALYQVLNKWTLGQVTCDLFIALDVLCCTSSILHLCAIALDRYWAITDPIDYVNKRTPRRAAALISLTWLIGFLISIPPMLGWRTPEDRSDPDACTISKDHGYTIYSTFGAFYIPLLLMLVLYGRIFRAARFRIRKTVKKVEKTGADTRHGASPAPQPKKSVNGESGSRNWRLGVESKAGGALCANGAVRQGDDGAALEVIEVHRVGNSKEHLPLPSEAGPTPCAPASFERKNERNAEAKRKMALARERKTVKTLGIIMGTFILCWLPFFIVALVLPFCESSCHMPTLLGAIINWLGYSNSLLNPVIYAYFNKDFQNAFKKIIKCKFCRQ
The experiment in a line: (§1) Inhibition of 5-HT induced [35S]GTP-gamma-S, binding at human cloned 5-HT 1A receptors. The experiment is classed as functional.

The target of experiment [2] is T2, 5-hydroxytryptamine receptor 1A (Homo sapiens, UniProt P08908).
T2 sequence (P08908 whole entry): T1 sequence (whole entry)
The experiment is described as follows: In vitro binding affinity at 5-hydroxytryptamine 1A receptor by [3H]8-OH-DPAT displacement.

The target in experiment [3] is Sodium-dependent serotonin transporter (Rattus norvegicus, UniProt P31652). The experiment in a line: In vitro affinity at the 5-HT reuptake site using [3H]paroxetine as radioligand in rat frontal cortex membranes. The experiment is classed as cell membranes, Membrane.
Chain of Sodium-dependent serotonin transporter (P31652 whole entry): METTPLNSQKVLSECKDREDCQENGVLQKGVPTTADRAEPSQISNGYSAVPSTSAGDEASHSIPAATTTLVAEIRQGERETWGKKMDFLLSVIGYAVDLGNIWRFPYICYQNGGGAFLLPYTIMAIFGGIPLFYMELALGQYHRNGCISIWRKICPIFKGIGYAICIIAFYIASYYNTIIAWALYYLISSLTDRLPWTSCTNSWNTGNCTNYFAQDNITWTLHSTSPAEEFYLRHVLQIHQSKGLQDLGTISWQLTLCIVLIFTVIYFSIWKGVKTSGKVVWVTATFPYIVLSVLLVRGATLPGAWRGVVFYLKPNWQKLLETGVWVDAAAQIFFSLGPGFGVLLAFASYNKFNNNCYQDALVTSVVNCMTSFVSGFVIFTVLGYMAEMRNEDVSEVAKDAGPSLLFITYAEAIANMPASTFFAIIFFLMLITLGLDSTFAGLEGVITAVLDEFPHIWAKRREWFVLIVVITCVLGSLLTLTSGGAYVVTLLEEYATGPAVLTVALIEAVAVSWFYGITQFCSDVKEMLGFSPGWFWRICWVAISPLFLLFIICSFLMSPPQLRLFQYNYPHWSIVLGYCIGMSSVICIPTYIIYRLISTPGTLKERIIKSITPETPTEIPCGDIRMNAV
Experiment [4] addresses T1, 5-hydroxytryptamine receptor 1A (Homo sapiens). The experiment in a line: Stimulation of binding of [35S]GTP-gamma-S, to G protein mediated by human cloned 5-hydroxytryptamine 1A receptor tested in vitro at 1 uM. Type of experiment: functional.
The target of experiment [5] is T2, 5-hydroxytryptamine receptor 1A. Described as §1. Type of experiment: functional.
Experiment [6] deals with T1, 5-hydroxytryptamine receptor 1A (Homo sapiens). The experiment is described as follows: In vitro binding affinity towards 5-hydroxytryptamine 1A receptor using [3H]8-OH-DPAT as radioligand. The settings on record: concentration not given here.

On to `C[C@@H]1C[C@H](c2cc3cc(F)ccc3s2)CCN1C[C@H](O)COc1cccc2[nH]ccc12`, for which the Emin in experiment [1] worked out at 10.8%. In addition, the Ki in experiment [2] was 8.77 nM; in experiment [3], 3.53 nM; in experiment [5], 1.76 nM. This compound returned a Stimulation in experiment [4] of 7.21%.
On the same counts, the results for `COc1ccc2cc([C@@H]3CCN(C[C@H](O)COc4cccc5[nH]ccc45)[C@@H](C)C3)sc2c1` are 6.67%, 14.5 nM, 1.1 nM, 2.98 nM and 5.26%.
`C[C@H]1C[C@H](c2cc3c(C(F)(F)F)cccc3s2)CCN1C[C@H](O)COc1cccc2[nH]ccc12`: the Ki in experiment [2] turned out to be 24.2 nM; in experiment [3], 3.46 nM.
On to `Cc1cccc2sc([C@@H]3CCN(C[C@H](O)COc4cccc5[nH]ccc45)[C@@H](C)C3)cc12`, for which the Emin in experiment [1] stood at 4.96%. For the same compound, the Ki in experiment [2] turned out to be 6.85 nM; in experiment [3], 0.44 nM; in experiment [5] it was 8.75 nM. Also, the Stimulation in experiment [4] came to 8.48%.
The compound `C[C@H]1C[C@H](c2cc3cccc(F)c3s2)CCN1C[C@H](O)COc1cccc2[nH]ccc12` gave an Emin in experiment [1] of 6.8%. The values for the Ki in experiment [2], in experiment [3] and in experiment [5] were 21.9 nM, 3.47 nM and 4.23 nM, respectively. Further, the Stimulation in experiment [4] is 2.66%.
The compound `C[C@H]1C[C@H](c2cc3cc(F)ccc3s2)CCN1C[C@H](O)COc1cccc2[nH]ccc12` gave an Emin in experiment [1] of 7.69%. Also, the inhibition constant (Ki) amounted to 6.4 nM in experiment [2], 0.39 nM in experiment [3] and 5.67 nM in experiment [5]. In addition, in experiment [4], the Stimulation amounted to 7.68%.
The compound `C[C@H]1C[C@H](c2cc3cc(Cl)ccc3s2)CCN1C[C@H](O)COc1cccc2[nH]ccc12` returned an Emin in experiment [1] of 6.81%. Besides, the results for the Ki in experiment [2], in experiment [3] and in experiment [5] were 8.34 nM, 0.58 nM and 5.26 nM, respectively. Also, in experiment [4], the Stimulation worked out at 3.97%.
The compound `COc1cccc2sc([C@@H]3C[C@H]4CC[C@@H](C3)N4C[C@H](O)COc3cccc4[nH]ccc34)cc12` (stereo in doubt; endo) [listing 1 of 2 here] registered a Ki in experiment [3] of 0.17 nM.
In experiment [1], `C[C@H]1C[C@H](c2cc3ccc(F)cc3s2)CCN1C[C@H](O)COc1cccc2[nH]ccc12` gave an Emin of 9%. For the same compound, the values for the Ki in experiment [2], in experiment [3] and in experiment [5] were 5.52 nM, 0.31 nM and 7.45 nM, respectively. In experiment [4], this compound came in with a Stimulation of 5.32%.
Consider `C[C@H]1C[C@H](c2cc3ccc(Cl)cc3s2)CCN1C[C@H](O)COc1cccc2[nH]ccc12`, for which the Emin in experiment [1] amounted to 7.99%. The results for the Ki in experiment [2], in experiment [3] and in experiment [5] were 24.8 nM, 1.1 nM and 11.7 nM, respectively. This compound gave a Stimulation in experiment [4] of 8.49%.
On the same counts, the results for `O[C@H](COc1cccc2[nH]ccc12)CN1[C@@H]2CC[C@H]1C[C@H](c1cc3ccccc3s1)C2` are 9.4%, 30.5 nM, 0.07 nM, 70.1 nM and 9.26%.
With `C[C@H]1C[C@@H](c2cc3cc(F)ccc3s2)CCN1C[C@H](O)COc1cccc2[nH]ccc12`, the Emin in experiment [1] turned out to be 7.87%. The Ki came out at 36.8 nM in experiment [2], 4.22 nM in experiment [3] and 16.5 nM in experiment [5]. In addition, the Stimulation in experiment [4] was 3.24%.
Regarding `COc1cccc2sc([C@@H]3C[C@H]4CC[C@@H](C3)N4C[C@H](O)COc3cccc4[nH]ccc34)cc12` (stereo in doubt; exo) [listing 1 of 2 here], the Ki is 15.7 nM in experiment [2], 1.31 nM in experiment [3] and 18.7 nM in experiment [5].
For `COc1ccc2sc([C@@H]3CCN(C[C@H](O)COc4cccc5[nH]ccc45)[C@@H](C)C3)cc2c1OC`, the Emin in experiment [1] stood at 4.8%. Further, the Ki was 1.3 nM in experiment [2], 10.8 nM in experiment [3] and 0.98 nM in experiment [5]. Also, in experiment [4], the Stimulation is 8.38%.
`COc1cccc2sc([C@@H]3C[C@H]4CC[C@@H](C3)N4C[C@H](O)COc3cccc4[nH]ccc34)cc12` (stereo in doubt; endo) [listing 2 of 2 here]: the inhibition in experiment [6] is greater than 50%.
Regarding `COc1cccc2sc([C@@H]3CCN(C[C@H](O)COc4cccc5[nH]ccc45)[C@@H](C)C3)cc12`, the Stimulation in experiment [4] was 7.77%.
`C[C@H]1C[C@H](c2cc3ccccc3s2)CCN1C[C@H](O)COc1cccc2[nH]ccc12` gave an Emin in experiment [1] of 7.5%. Moreover, the Ki in experiment [2] worked out at 3.09 nM; in experiment [3] it was 0.51 nM; in experiment [5] it was 3.28 nM. Besides, the Stimulation in experiment [4] amounted to 6.32%.
Consider `C[C@H]1C[C@H](c2cc3c(F)cccc3s2)CCN1C[C@H](O)COc1cccc2[nH]ccc12`, for which, in experiment [1], the Emin was 7.44%. The Ki in experiment [3] came to 1.16 nM; in experiment [5] it was 4.88 nM. Also, in experiment [4], the Stimulation turned out to be 5.37%.
Regarding `C[C@H]1C[C@H](c2cc3c(Cl)cccc3s2)CCN1C[C@H](O)COc1cccc2[nH]ccc12`, in experiment [6], the inhibition was less than 50%. For the same compound, the Ki in experiment [3] was 0.69 nM.
`C[C@@H]1C[C@@H](c2cc3cc(F)ccc3s2)CCN1C[C@H](O)COc1cccc2[nH]ccc12` yielded an Emin in experiment [1] of 10.5%. Besides, the inhibition constant Ki in experiment [2] stood at 11.7 nM; in experiment [3] it was 0.99 nM; in experiment [5], 16.7 nM. Besides, the Stimulation in experiment [4] worked out at 6.35%.
As for `COc1cccc2sc([C@H]3CCN(C[C@H](O)COc4cccc5[nH]ccc45)[C@H](C)C3)cc12`, in experiment [1], the Emin was 5.97%. The compound also came in with a Stimulation in experiment [4] of 4.41%.
In experiment [1], `COc1cccc2sc([C@@H]3CCN(C[C@H](O)COc4cccc5[nH]ccc45)[C@H](C)C3)cc12` returned an Emin of 2.01%. In addition, in experiment [4], the Stimulation is 1.2%.
For `Cc1ccc2cc([C@@H]3CCN(C[C@H](O)COc4cccc5[nH]ccc45)[C@@H](C)C3)sc2c1`, the inhibition in experiment [6] is less than 50%. Besides, in experiment [3], the Ki is 2.24 nM.
With `COc1cccc2sc([C@H]3CCN(C[C@H](O)COc4cccc5[nH]ccc45)[C@@H](C)C3)cc12`, in experiment [1], the Emin was found to be 1.43%. The compound further yielded a Stimulation in experiment [4] of 1.38%.
Take `Cc1cc(C)c2cc([C@@H]3CCN(C[C@H](O)COc4cccc5[nH]ccc45)[C@@H](C)C3)sc2c1`: the Ki in experiment [2] worked out at 94.9 nM; in experiment [3] it was 1.93 nM.
In experiment [1], `COc1cccc2sc([C@@H]3C[C@H]4CC[C@@H](C3)N4C[C@H](O)COc3cccc4[nH]ccc34)cc12` (stereo in doubt; exo) [listing 2 of 2 here] yielded an Emin of 4.02%. The compound further showed a Stimulation in experiment [4] of 7.22%.

For the origin of these results see ChEMBL document CHEMBL1136114, “Advances Toward new antidepressants beyond SSRIs: 1-aryloxy-3-piperidinylpropan-2-ols with dual 5-HT(1A) receptor antagonism/SSRI activities. Part 2” (Bioorg Med Chem Lett, 2003).
